Experimental data as given in patent US7279161B2, “Factor IX/factor IXa activating antibodies and antibody derivatives” (Baxter Aktiengesellschaft, priority 1999, dated 2007).

Experiments:
human FIXa = target: T1, human FIXa (Homo sapiens, UniProt P00740); test: Chromogenic FVIII-like (FXa generation) assay with human FIXa added; assay type: biochemical; settings: 12 μM peptide, 2.3 nM human FIXa
T1 construct: with (+) and without (−) addition of 50 ng human FIXaβ; purchased ERL (Enzyme Research Laboratories)
T1 sequence (P00740 47-191 limits assumed): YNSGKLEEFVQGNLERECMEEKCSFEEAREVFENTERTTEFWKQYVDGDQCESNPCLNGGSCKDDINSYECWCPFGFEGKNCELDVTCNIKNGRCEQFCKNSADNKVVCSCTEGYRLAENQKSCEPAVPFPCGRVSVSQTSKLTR
T1 sequence (P00740 227-461 limits assumed): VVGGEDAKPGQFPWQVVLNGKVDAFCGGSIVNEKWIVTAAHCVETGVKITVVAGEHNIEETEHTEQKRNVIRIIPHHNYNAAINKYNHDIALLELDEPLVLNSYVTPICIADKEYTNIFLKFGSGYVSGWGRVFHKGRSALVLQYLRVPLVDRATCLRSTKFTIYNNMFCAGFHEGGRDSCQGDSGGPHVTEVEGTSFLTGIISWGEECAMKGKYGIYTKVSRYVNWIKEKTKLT
Method: The chromogenic activity of these antibody preparations was measured in the following FXa generation kinetic assay: 10 μg of monoclonal antibody (in 25 μl) were transferred to microtiter plate wells and warmed to 37° C. Chromogenic substrate (S-2222), synthetic thrombin inhibitor (I-2581), factor IXa and FX were reconstituted in sterile water and FIXa/FX (both bovine) were mixed with phospholipids according to the supplier's protocol. Per reaction, 50 μl of the phospholipid/FIXa/FX solution were combined with 25 μl CaCl2 (25 mM) and 50 μl of the substrate/inhibitor cocktail. To start the reaction, 125 μl of the premix were added to the monoclonal antibody solution in the microtiter plates and incubated at 37° C. Absorbance at 405 nm and 490 nm of the samples was read at various times (5 min to 2 h) against a reagent blank ([…] TBS instead of monoclonal antibodies) in a Labsystems iEMS Reader MF™ microtiter plate reader using GENESIS™ software. In parallel, the same reactions were performed except that 50 ng human FIXa were added per reaction.
To analyze the FVIII-like (FIXa activating) activity of the peptides, an assay system based on a commercial available FVIII assay was developed (see examples 2 and 4). The basic principle is, that without a cofactor, FIXa will have very limited activity towards its natural substrate FX. […] The amount of FXa generated is monitored by cleavage of a chromogenic substrate. The principle of the revised chromogenic assay is described for two representative peptides: A1/3 and A1/5 (Table 2). Briefly, 25 μl aliquots of peptide stock solution (in imidazole buffer (IZ) 50 mM imidazole, 100 mM NaCl, pH 7.2) were transferred to microtiter plate wells and warmed to 37° C. Chromogenic FXa substrate (S-2222), synthetic thrombin inhibitor (I-2581), bovine FIXa and bovine FX were reconstituted in sterile water and FIXa/FX mixed with phospholipids according to the supplier's protocol. […] Per reaction, 50 μl of the phospholipid/FIXa/FX solution were combined with 25 μl CaCl2 (25 mM) and 50 μl of the substrate/inhibitor cocktail. To start the reaction, 125 μl of the premix were added to the peptide solution in the microtiter plate and incubated at 37° C. Absorbance at 405 nm and 490 nm of the samples was read at various times (5 min to 2 h) against a reagent blank in a Labsystems iEMS Reader MF™ microtiter plate reader using GENESIS™ software.

FVIII deficient plasma = test: aPTT based one stage clotting assay in FVIII deficient plasma; assay type: biochemical, human
Method: During normal hemostasis, FIX becomes initially activated either by the tissue factor (TF)/factor VIIa pathway or later on by activated factor XI (FXIa). Subsequent to its activation, FIXa associates on the platelet surface in a membrane bound complex with activated FVIII. […] Different amounts of antibody 193/AD3 or mouse IgG (as a control) were used in a standard aPTT based one stage clotting assay. Briefly, 100 μl of antibody-containing samples were incubated with 100 μl of FVIII deficient plasma (DP) and with 100 μl of DAPTTIN (PTT Reagent for determining activated Thromboplastin Time; IMMUNO AG) reagent, in a KC10A clotting analyzer. Where indicated, a total amount of 50 ng activated FIX was included in the reaction mixture. After a 4 minute incubation, the reaction was started by the addition of 100 μl CaCl2 (25 mM).
The peptides were also analyzed for their potential to reduce the clotting time in a FVIII deficient plasma. The aPTT based one stage clotting assay was essentially done as described (see example 6). Clotting times (time from starting the reaction to the “clot”-formation were compared either against FVIII, a buffer control (IZ) or a control peptide (scrambled version). The results of two typical clotting experiments done with two different aPTT reagents (DAPTTIN and Pathromtin SL) are shown in table 3A and table 3B.

## RdRdRdEGGGYYVNWYFDRdRdRd [A1/3-Rd]
Human FIXa
  chromogenic activity: virtually unchanged
Human FIXa; listed as A1/3-rd
  chromogenic activity: did not change the FVIII-like activity
FVIII deficient plasma; Table 4, 1.25 μM, 2.2 nM FIXa
  average clotting time: 96 s
FVIII deficient plasma; Table 4, 1.25 μM, 2.2 nM FIXa, duplicate 1
  clotting time: 96.6 s
FVIII deficient plasma; Table 4, 1.25 μM, 2.2 nM FIXa, duplicate 2
  clotting time: 96 s
FVIII deficient plasma; Table 4, 1.25 μM, w/o FIXa
  average clotting time: 108 s
FVIII deficient plasma; Table 4, 1.25 μM, w/o FIXa, duplicate 1
  clotting time: 107.5 s
FVIII deficient plasma; Table 4, 1.25 μM, w/o FIXa, duplicate 2
  clotting time: 107.7 s
FVIII deficient plasma; Table 4, 2.5 μM, 2.2 nM FIXa
  average clotting time: 95 s
FVIII deficient plasma; Table 4, 2.5 μM, 2.2 nM FIXa, duplicate 1
  clotting time: 94.4 s
FVIII deficient plasma; Table 4, 2.5 μM, 2.2 nM FIXa, duplicate 2
  clotting time: 94.7 s
FVIII deficient plasma; Table 4, 2.5 μM, w/o FIXa
  average clotting time: 103 s
FVIII deficient plasma; Table 4, 2.5 μM, w/o FIXa, duplicate 1
  clotting time: 102.7 s
FVIII deficient plasma; Table 4, 2.5 μM, w/o FIXa, duplicate 2
  clotting time: 103.4 s
FVIII deficient plasma; Table 4, 5 μM, 2.2 nM FIXa
  average clotting time: 86 s
FVIII deficient plasma; Table 4, 5 μM, 2.2 nM FIXa, duplicate 1
  clotting time: 86 s
FVIII deficient plasma; Table 4, 5 μM, 2.2 nM FIXa, duplicate 2
  clotting time: 85.1 s
FVIII deficient plasma; Table 4, 5 μM, w/o FIXa
  average clotting time: 99 s
FVIII deficient plasma; Table 4, 5 μM, w/o FIXa, duplicate 1
  clotting time: 99.2 s
FVIII deficient plasma; Table 4, 5 μM, w/o FIXa, duplicate 2
  clotting time: 99.1 s
FVIII deficient plasma; Table 4, 7.5 μM, 2.2 nM FIXa
  average clotting time: 82 s
FVIII deficient plasma; Table 4, 7.5 μM, 2.2 nM FIXa, duplicate 1
  clotting time: 80.9 s
FVIII deficient plasma; Table 4, 7.5 μM, 2.2 nM FIXa, duplicate 2
  clotting time: 82.2 s
FVIII deficient plasma; Table 4, 7.5 μM, w/o FIXa
  average clotting time: 98 s
FVIII deficient plasma; Table 4, 7.5 μM, w/o FIXa, duplicate 1
  clotting time: 97.6 s
FVIII deficient plasma; Table 4, 7.5 μM, w/o FIXa, duplicate 2
  clotting time: 98.1 s
FVIII deficient plasma; Table 4, 10 μM, 2.2 nM FIXa
  average clotting time: 76 s
FVIII deficient plasma; Table 4, 10 μM, 2.2 nM FIXa, duplicate 1
  clotting time: 74.2 s
FVIII deficient plasma; Table 4, 10 μM, 2.2 nM FIXa, duplicate 2
  clotting time: 77.2 s
FVIII deficient plasma; Table 4, 10 μM, w/o FIXa
  average clotting time: 95 s
FVIII deficient plasma; Table 4, 10 μM, w/o FIXa, duplicate 1
  clotting time: 93.5 s
FVIII deficient plasma; Table 4, 10 μM, w/o FIXa, duplicate 2
  clotting time: 95.8 s
FVIII deficient plasma; Table 4, 12.5 μM, 2.2 nM FIXa
  average clotting time: 73 s
FVIII deficient plasma; Table 4, 12.5 μM, 2.2 nM FIXa, duplicate 1
  clotting time: 72.3 s
FVIII deficient plasma; Table 4, 12.5 μM, 2.2 nM FIXa, duplicate 2
  clotting time: 73.7 s
FVIII deficient plasma; Table 4, 12.5 μM, w/o FIXa
  average clotting time: 98 s
FVIII deficient plasma; Table 4, 12.5 μM, w/o FIXa, duplicate 1
  clotting time: 98 s
FVIII deficient plasma; Table 4, 12.5 μM, w/o FIXa, duplicate 2
  clotting time: 98.6 s
FVIII deficient plasma; Table 4, 15 μM, 2.2 nM FIXa
  average clotting time: 75 s
FVIII deficient plasma; Table 4, 15 μM, 2.2 nM FIXa, duplicate 1
  clotting time: 76.1 s
FVIII deficient plasma; Table 4, 15 μM, 2.2 nM FIXa, duplicate 2
  clotting time: 74.4 s
FVIII deficient plasma; Table 4, 15 μM, w/o FIXa
  average clotting time: 96 s
FVIII deficient plasma; Table 4, 15 μM, w/o FIXa, duplicate 1
  clotting time: 96.4 s
FVIII deficient plasma; Table 4, 15 μM, w/o FIXa, duplicate 2
  clotting time: 95.4 s
FVIII deficient plasma; compared with A1/3
  aPTT based one-stage clotting activity: somewhat reduced, was still easily detectable
